Reference: the supplement of paper PMC4862054

Assays:
Assay in all cases: normalised response (% of control), CellTox Green; higher = less cell death (100 = DMSO, 0 = benzethonium chloride kill control)
Settings in all cases: incubation time: 72 h
BT-474 = system: BT-474
Method in brief: (§1)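 Breast cancer cell lines were exposed for 72 h in 384-well plates to compound at 5 concentrations, 10-fold apart, covering a 10,000-fold range fixed for each compound. Plates were read for CellTox Green fluorescence and CellTiter-Glo luminescence and normalised to 0.1 % DMSO (100) and a positive kill control (0). Each value is the normalised signal at one concentration of the series.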

BT-549 = system: BT-549
Method in brief: as §1

CAL-120 = system: CAL-120
Method in brief: as §1

CAL-148 = system: CAL-148
Method in brief: as §1

CAL-51 = system: CAL-51
Method in brief: as §1

CAL-85-1 = system: CAL-85-1
Method in brief: as §1

DU-4475 = system: DU-4475
Method in brief: as §1

HCC1143 = system: HCC1143
Method in brief: as §1

HCC1599 = system: HCC1599
Method in brief: as §1

HCC1937 = system: HCC1937
Method in brief: as §1

HDQ-P1 = system: HDQ-P1
Method in brief: as §1

Hs578T = system: Hs578T
Method in brief: as §1

MCF-10A = system: MCF-10A
Method in brief: as §1

MDA-MB-231 = system: MDA-MB-231
Method in brief: as §1

MDA-MB-436 = system: MDA-MB-436
Method in brief: as §1

MDA-MB-453 = system: MDA-MB-453
Method in brief: as §1

MDA-MB-468 = system: MDA-MB-468
Method in brief: as §1

MFM-223 = system: MFM-223
Method in brief: as §1

O=c1[nH]c(=O)n([C@H]2C[C@H](O)[C@@H](CO)O2)cc1F [Floxuridine] (10000 nM)
normalised response (BT-474): 104%
normalised response (BT-549): 113%
normalised response (CAL-120): 93.8%
normalised response (CAL-148): 106%
normalised response (CAL-51): 53.1%
normalised response (CAL-85-1): 26.5%
normalised response (DU-4475): 103%
normalised response (HCC1143): 103%
normalised response (HCC1599): 106%
normalised response (HCC1937): 114%
normalised response (HDQ-P1): 66.2%
normalised response (Hs578T): 93.2%
normalised response (MCF-10A): 113%
normalised response (MDA-MB-231): 108%
normalised response (MDA-MB-436): 99.9%
normalised response (MDA-MB-453): 103%
normalised response (MDA-MB-468): 119%

C[C@@H]1C=C2C(=O)O[C@@H]3CC[C@H](C1)[C@]23O [Galiellalactone] (5000 nM)
normalised response (BT-474): 100%
normalised response (BT-549): 117%
normalised response (CAL-120): 58.8%
normalised response (CAL-148): 104%
normalised response (CAL-51): 101%
normalised response (CAL-85-1): 106%
normalised response (DU-4475): 106%
normalised response (HCC1143): 105%
normalised response (HCC1599): 105%
normalised response (HCC1937): 115%
normalised response (HDQ-P1): 98.5%
normalised response (Hs578T): 112%
normalised response (MCF-10A): 82.2%
normalised response (MDA-MB-231): 107%
normalised response (MDA-MB-436): 96.5%
normalised response (MDA-MB-453): 103%
normalised response (MFM-223): 101%

COC1=C2C[C@@H](C)C[C@H](OC)[C@H](O)[C@@H](C)/C=C(\C)[C@H](OC(N)=O)[C@@H](OC)/C=C\C=C(/C)C(=O)NC(=CC1=O)C2=O [Geldanamycin] (1000 nM)
normalised response (BT-474): 95%
normalised response (BT-549): 112%
normalised response (CAL-120): 102%
normalised response (CAL-51): 109%
normalised response (CAL-85-1): 91%
normalised response (DU-4475): 99.2%
normalised response (HCC1143): 102%
normalised response (HCC1599): 92.2%
normalised response (HCC1937): 105%
normalised response (HDQ-P1): 102%
normalised response (Hs578T): 91.1%
normalised response (MCF-10A): 96.8%
normalised response (MDA-MB-231): 107%
normalised response (MDA-MB-436): 92.2%
normalised response (MDA-MB-453): 104%
normalised response (MFM-223): 90.7%

Cn1cnc2c(F)c(Nc3ccc(Br)cc3F)c(C(=O)NOCCO)cc21 [MEK-162] (1000 nM)
normalised response (BT-474): 101%
normalised response (BT-549): 97.4%
normalised response (CAL-120): 93.1%
normalised response (CAL-51): 89.1%
normalised response (CAL-85-1): 79.3%
normalised response (DU-4475): 68.7%
normalised response (HCC1143): 94.5%
normalised response (HCC1599): 94.4%
normalised response (HCC1937): 54.6%
normalised response (HDQ-P1): 67.1%
normalised response (Hs578T): 121%
normalised response (MCF-10A): 106%
normalised response (MDA-MB-231): 39.1%
normalised response (MDA-MB-436): 79.9%
normalised response (MDA-MB-453): 95.4%
normalised response (MDA-MB-468): 120%

COc1ccc(C2=N[C@@H](c3ccc(Cl)cc3)[C@@H](c3ccc(Cl)cc3)N2C(=O)N2CCNC(=O)C2)c(OC(C)C)c1 [Nutlin-3] (1000 nM)
normalised response (BT-474): 100%
normalised response (BT-549): 116%
normalised response (CAL-120): 102%
normalised response (CAL-148): 102%
normalised response (CAL-85-1): 108%
normalised response (DU-4475): 100%
normalised response (HCC1143): 94.2%
normalised response (HCC1599): 99.6%
normalised response (HCC1937): 115%
normalised response (HDQ-P1): 112%
normalised response (Hs578T): 61.6%
normalised response (MCF-10A): 84%
normalised response (MDA-MB-231): 104%
normalised response (MDA-MB-436): 92.7%
normalised response (MDA-MB-453): 109%
normalised response (MDA-MB-468): 108%
normalised response (MFM-223): 100%

COc1ccc(C2=N[C@@H](c3ccc(Cl)cc3)[C@@H](c3ccc(Cl)cc3)N2C(=O)N2CCNC(=O)C2)c(OC(C)C)c1 [Nutlin-3] (10000 nM)
normalised response (BT-474): 97.6%
normalised response (BT-549): 105%
normalised response (CAL-120): 98.2%
normalised response (CAL-148): 43.8%
normalised response (CAL-51): 41.2%
normalised response (CAL-85-1): 80.3%
normalised response (DU-4475): 91%
normalised response (HCC1143): 105%
normalised response (HCC1599): 101%
normalised response (HDQ-P1): 103%
normalised response (Hs578T): 115%
normalised response (MCF-10A): 101%
normalised response (MDA-MB-231): 108%
normalised response (MDA-MB-436): 95%
normalised response (MDA-MB-453): 92.3%
normalised response (MDA-MB-468): 107%
normalised response (MFM-223): 96.4%

CC(C)(C)c1cc(NC(=O)Nc2ccc(-c3cn4c(n3)sc3cc(OCCN5CCOCC5)ccc34)cc2)no1 [Quizartinib] (100 nM)
normalised response (BT-474): 100%
normalised response (BT-549): 132%
normalised response (CAL-120): 99.7%
normalised response (CAL-148): 106%
normalised response (CAL-51): 117%
normalised response (CAL-85-1): 107%
normalised response (DU-4475): 101%
normalised response (HCC1143): 98.3%
normalised response (HCC1599): 106%
normalised response (HDQ-P1): 103%
normalised response (Hs578T): 113%
normalised response (MCF-10A): 84.8%
normalised response (MDA-MB-231): 116%
normalised response (MDA-MB-436): 66.7%
normalised response (MDA-MB-453): 101%
normalised response (MDA-MB-468): 139%
normalised response (MFM-223): 102%

CC(C)(C)c1cc(NC(=O)Nc2ccc(-c3cn4c(n3)sc3cc(OCCN5CCOCC5)ccc34)cc2)no1 [Quizartinib] (1000 nM)
normalised response (BT-474): 101%
normalised response (BT-549): 127%
normalised response (CAL-120): 103%
normalised response (CAL-148): 103%
normalised response (CAL-51): 111%
normalised response (CAL-85-1): 62.5%
normalised response (DU-4475): 102%
normalised response (HCC1143): 132%
normalised response (HCC1599): 105%
normalised response (HCC1937): 96%
normalised response (HDQ-P1): 90.1%
normalised response (MCF-10A): 93.3%
normalised response (MDA-MB-231): 124%
normalised response (MDA-MB-436): 71.8%
normalised response (MDA-MB-453): 112%
normalised response (MDA-MB-468): 174%
normalised response (MFM-223): 59.1%

O=C(c1ccc(OCCN2CCCCC2)cc1)c1c(-c2ccc(O)cc2)sc2cc(O)ccc12 [Raloxifene] (1000 nM)
normalised response (BT-474): 97%
normalised response (BT-549): 106%
normalised response (CAL-120): 104%
normalised response (CAL-148): 92%
normalised response (CAL-51): 121%
normalised response (CAL-85-1): 98.6%
normalised response (DU-4475): 104%
normalised response (HCC1143): 119%
normalised response (HCC1599): 102%
normalised response (HCC1937): 119%
normalised response (HDQ-P1): 105%
normalised response (Hs578T): 105%
normalised response (MCF-10A): 104%
normalised response (MDA-MB-231): 103%
normalised response (MDA-MB-436): 107%
normalised response (MDA-MB-453): 103%
normalised response (MDA-MB-468): 120%

O=C(c1ccc(OCCN2CCCCC2)cc1)c1c(-c2ccc(O)cc2)sc2cc(O)ccc12 [Raloxifene] (10000 nM)
normalised response (BT-474): 95.4%
normalised response (BT-549): 101%
normalised response (CAL-148): 103%
normalised response (CAL-51): 108%
normalised response (CAL-85-1): 63.3%
normalised response (DU-4475): 99.6%
normalised response (HCC1143): 118%
normalised response (HCC1599): 58.4%
normalised response (HCC1937): 82.8%
normalised response (HDQ-P1): 50.4%
normalised response (MCF-10A): 82.2%
normalised response (MDA-MB-231): 62.7%
normalised response (MDA-MB-436): 104%
normalised response (MDA-MB-453): 99.2%
normalised response (MDA-MB-468): 82.7%
normalised response (MFM-223): 102%

Cn1c(=O)c(F)c(Nc2ccc(I)cc2F)c2c(=O)n(C[C@@H](O)CO)cnc21 [TAK-733] (100 nM)
normalised response (BT-474): 103%
normalised response (BT-549): 89.6%
normalised response (CAL-120): 97%
normalised response (CAL-148): 105%
normalised response (CAL-51): 80.9%
normalised response (CAL-85-1): 89%
normalised response (DU-4475): 74%
normalised response (HCC1143): 124%
normalised response (HCC1599): 104%
normalised response (HCC1937): 108%
normalised response (HDQ-P1): 97.3%
normalised response (MCF-10A): 79.7%
normalised response (MDA-MB-231): 71.3%
normalised response (MDA-MB-436): 104%
normalised response (MDA-MB-453): 112%
normalised response (MDA-MB-468): 127%
normalised response (MFM-223): 74.9%
